Laboratory results taken from US9018175B2 (Takeda GmbH, priority 2009, dated 2015).

Columns and labels:
[1] = system: patients with pulmonary fibrosis; settings: open-label trials (Ghofrani 2002; Collard 2007); cited from earlier work
[2] = system: bleomycin-induced pulmonary fibrosis and pulmonary hypertension; settings: through inhibition of ROS generation and RhoA/Rho kinase activation (Hemnes et al. 2008); cited from earlier work
[3] = biological target: T1, PDE4B1 (Homo sapiens, UniProt Q07343); experiment: Inhibition of PDE4B1 activity (SPA, [3H]cAMP); format: biochemical; settings: recombinant PDE4B1 expressed in SF21 cells; 0.5 pM [sic] cAMP; values given as bins; read-out: PDE4B1 inhibitory values measured as −logIC50 (converted)
T1 construct: made in house; host or cells: SF21 insect cells (baculovirus; pCR-Bac vector)
In short: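 Recombinant human PDE4B1 (Sf21 cell 1000 g supernatant) in 20 mM Tris pH 7.4, 0.1 mg/ml BSA, 5 mM Mg2+, […] with [3H]cAMP tracer, enzyme giving 10-20% conversion. After 5 min preincubation at 37 °C, 15 min reaction, stopped by SPA beads with IBMX; IC50 by non-linear regression.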

[4] = biological target: T2, human PDE5 (Homo sapiens, UniProt O76074); experiment: Inhibition of PDE5 activity (SPA, [3H]cGMP, platelet lysate); format: biochemical; settings: PDE5 from human platelet lysate; values given as bins; read-out: PDE5A inhibitory values measured as −logIC50 (converted)
T2 construct: from tissue; host or cells: human platelets from fresh donor blood (10,000 g supernatant of sonicated platelets)
In short: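 Human platelet lysate served as PDE5 source, with 1 μM motapizone and 10 nM PDE2 inhibitor present; […] plus [3H]cGMP tracer, pH 7.4, 5 mM Mg2+, 10-20% substrate turnover. After 5 min preincubation, 15 min at 37 °C, stopped with SPA beads and IBMX; IC50 by non-linear regression.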

[5] = system: bleomycin-induced lung fibrosis; settings: in-vivo, bleomycin-induced lung fibrosis model in mice (Cortijo et al. 2009); cited from earlier work

T1 sequence (Q07343 whole entry): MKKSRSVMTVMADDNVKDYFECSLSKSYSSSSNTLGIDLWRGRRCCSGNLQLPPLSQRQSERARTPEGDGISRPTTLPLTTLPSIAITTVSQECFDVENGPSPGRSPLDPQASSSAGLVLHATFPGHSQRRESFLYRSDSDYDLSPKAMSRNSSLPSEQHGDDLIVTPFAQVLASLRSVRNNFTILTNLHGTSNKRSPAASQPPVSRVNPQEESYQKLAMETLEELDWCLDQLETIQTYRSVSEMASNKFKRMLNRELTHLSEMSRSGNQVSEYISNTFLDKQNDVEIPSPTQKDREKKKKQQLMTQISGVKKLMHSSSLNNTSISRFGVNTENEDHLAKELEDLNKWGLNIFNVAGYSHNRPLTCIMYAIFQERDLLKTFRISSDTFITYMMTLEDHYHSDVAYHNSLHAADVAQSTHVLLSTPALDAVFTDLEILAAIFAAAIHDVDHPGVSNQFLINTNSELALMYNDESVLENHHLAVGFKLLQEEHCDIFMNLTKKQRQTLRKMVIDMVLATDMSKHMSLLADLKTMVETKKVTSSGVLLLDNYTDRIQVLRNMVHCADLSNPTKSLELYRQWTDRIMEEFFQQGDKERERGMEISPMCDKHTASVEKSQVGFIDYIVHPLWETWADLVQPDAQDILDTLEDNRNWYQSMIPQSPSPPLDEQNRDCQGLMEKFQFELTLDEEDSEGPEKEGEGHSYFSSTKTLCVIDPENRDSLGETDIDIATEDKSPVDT

Compound | IC50 [3] | IC50 [4] | further results
CCCc1nn(C)c2c(=O)[nH]c(-c3cc(S(=O)(=O)N4CCN(C)CC4)ccc3OCC)nc12 [sildenafil] |  |  | exercise tolerance [1]: increases exercise tolerance; lung hemodynamic (vascular resistance and ventilation/perfusion matching) [1]: improves lung hemodynamic; bleomycin-induced pulmonary fibrosis and pulmonary hypertension [2]: attenuates bleomycin-induced pulmonary fibrosis and pulmonary hypertension
CCOc1cc2c(cc1OC)C(c1ccc(C(=O)N3CCC(n4c(=O)c5sc(-c6ccc7c(c6)OCO7)cc5n(Cc5nc(CC)no5)c4=O)CC3)cc1)=N[C@@H]1CCSC[C@H]21 [Example 46, 6-(1,3-benzodioxol-5-yl)-3-[1-({4-[(4aR,10bR)-9-ethoxy-8-methoxy-3,4,4a,10b-tetrahydro-1H-thiopyrano[4,3-c]isoquinolin-6-yl]phenyl}carbonyl)piperidin-4-yl]-1-[(3-ethyl-1,2,4-oxadiazol-5-yl)methyl]thieno[3,2-d]pyrimidine-2,4(1H,3H)-dione] | 1 to 10 nM | < 10 nM | 
CCOc1cc2c(cc1OC)C(c1ccc(C(=O)N3CCC(n4c(=O)c5sc(-c6ccccc6)cc5n(Cc5nc(CC)co5)c4=O)CC3)cc1)=N[C@@H]1CCSC[C@H]21 [Example 5, 3-[1-({4-[(4aR,10bR)-9-ethoxy-8-methoxy-3,4,4a,10b-tetrahydro-1H-thiopyrano[4,3-c]isoquinolin-6-yl]phenyl}carbonyl)piperidin-4-yl]-1-[(4-ethyl-1,3-oxazol-2-yl)methyl]-6-phenylthieno[3,2-d]pyrimidine-2,4(1H,3H)-dione] | 1 to 10 nM | 10 to 100 nM | 
CCOc1cc2c(cc1OC)C(c1ccc(C(=O)N3CCC(n4c(=O)c5sc(-c6ccccc6)cc5n(Cc5cn(CC)nn5)c4=O)CC3)cc1)=N[C@@H]1CCSC[C@H]21 [Example 23, 3-[1-({4-[(4aR,10bR)-9-ethoxy-8-methoxy-3,4,4a,10b-tetrahydro-1H-thiopyrano[4,3-c]isoquinolin-6-yl]phenyl}carbonyl)piperidin-4-yl]-1-[(1-ethyl-1H-1,2,3-triazol-4-yl)methyl]-6-phenylthieno[3,2-d]pyrimidine-2,4(1H,3H)-dione] | 1 to 10 nM | > 100 nM | 
O=C(Nc1c(Cl)cncc1Cl)c1ccc(OC(F)F)c(OCC2CC2)c1 [roflumilast] |  |  | fibrosis development [5]: inhibit fibrosis development
CCOc1cc2c(cc1OC)C(c1ccc(C(=O)N3CCC(n4c(=O)c5sc(-c6ccccc6)cc5n(Cc5ocnc5C)c4=O)CC3)cc1)=N[C@@H]1CCSC[C@H]21 [Example 54, 3-[1-({4-[(4aR,10bR)-9-ethoxy-8-methoxy-3,4,4a,10b-tetrahydro-1H-thiopyrano[4,3-c]isoquinolin-6-yl]phenyl}carbonyl)piperidin-4-yl]-1-[(4-methyl-1,3-oxazol-5-yl)methyl]-6-phenylthieno[3,2-d]pyrimidine-2,4(1H,3H)-dione] | < 1 nM | > 100 nM | 
CCOc1cc2c(cc1OC)C(c1ccc(C(=O)N3CCC(n4c(=O)c5sc(-c6ccccc6)cc5n(Cc5ccn(CC)n5)c4=O)CC3)cc1)=N[C@@H]1CCSC[C@H]21 [Example 18, 3-[1-({4-[(4aR,10bR)-9-ethoxy-8-methoxy-3,4,4a,10b-tetrahydro-1H-thiopyrano[4,3-c]isoquinolin-6-yl]phenyl}carbonyl)piperidin-4-yl]-1-[(1-ethyl-1H-pyrazol-3-yl)methyl]-6-phenylthieno[3,2-d]pyrimidine-2,4(1H,3H)-dione] | 1 to 10 nM | > 100 nM | 
CCOc1cc2c(cc1OC)C(c1ccc(C(=O)N3CCC(n4c(=O)c5sc(-c6ccccc6)cc5n(Cc5ncc(CC)o5)c4=O)CC3)cc1)=N[C@@H]1CCSC[C@H]21 [Example 1, 3-[1-({4-[(4aR,10bR)-9-ethoxy-8-methoxy-3,4,4a,10b-tetrahydro-1H-thiopyrano[4,3-c]isoquinolin-6-yl]phenyl}carbonyl)piperidin-4-yl]-1-[(5-ethyl-1,3-oxazol-2-yl)methyl]-6-phenylthieno[3,2-d]pyrimidine-2,4(1H,3H)-dione] | 1 to 10 nM | < 10 nM | 
CCOc1cc2c(cc1OC)C(c1ccc(C(=O)N3CCC(n4c(=O)c5sc(-c6ccccc6)cc5n(Cc5cc(C)on5)c4=O)CC3)cc1)=N[C@@H]1CCSC[C@H]21 [Example 6, 3-[1-({4-[(4aR,10bR)-9-ethoxy-8-methoxy-3,4,4a,10b-tetrahydro-1H-thiopyrano[4,3-c]isoquinolin-6-yl]phenyl}carbonyl)piperidin-4-yl]-1-[(5-methylisoxazol-3-yl)methyl]-6-phenylthieno[3,2-d]pyrimidine-2,4(1H,3H)-dione] | 1 to 10 nM | 10 to 100 nM | 
CCOc1cc2c(cc1OC)C(c1ccc(C(=O)N3CCC(n4c(=O)c5sc(-c6ccccc6)cc5n(Cc5cnn(CC)c5)c4=O)CC3)cc1)=N[C@@H]1CCSC[C@H]21 [Example 17, 3-[1-({4-[(4aR,10bR)-9-ethoxy-8-methoxy-3,4,4a,10b-tetrahydro-1H-thiopyrano[4,3-c]isoquinolin-6-yl]phenyl}carbonyl)piperidin-4-yl]-1-[(1-ethyl-1H-pyrazol-4-yl)methyl]-6-phenylthieno[3,2-d]pyrimidine-2,4(1H,3H)-dione] | 1 to 10 nM | > 100 nM | 
CCOc1cc2c(cc1OC)C(c1ccc(C(=O)N3CCC(n4c(=O)c5sc(-c6ccccc6)cc5n(Cn5nnc(CC)n5)c4=O)CC3)cc1)=N[C@@H]1CCSC[C@H]21 [Example 57, 3-[1-({4-[(4aR,10bR)-9-ethoxy-8-methoxy-3,4,4a,10b-tetrahydro-1H-thiopyrano[4,3-c]isoquinolin-6-yl]phenyl}carbonyl)piperidin-4-yl]-1-[(5-ethyl-2H-tetrazol-2-yl)methyl]-6-phenylthieno[3,2-d]pyrimidine-2,4(1H,3H)-dione] | 1 to 10 nM | 10 to 100 nM | 
CCOc1cc2c(cc1OC)C(c1ccc(C(=O)N3CCC(n4c(=O)c5sc(-c6ccccc6)cc5n(Cc5ccc(CC)s5)c4=O)CC3)cc1)=N[C@@H]1CCSC[C@H]21 [Example 55, 3-[1-({4-[(4aR,10bR)-9-ethoxy-8-methoxy-3,4,4a,10b-tetrahydro-1H-thiopyrano[4,3-c]isoquinolin-6-yl]phenyl}carbonyl)piperidin-4-yl]-1-[(5-ethylthiophen-2-yl)methyl]-6-phenylthieno[3,2-d]pyrimidine-2,4(1H,3H)-dione] | 1 to 10 nM | 10 to 100 nM | 
CCOc1cc2c(cc1OC)C(c1cccc(C(=O)N3CCC(n4c(=O)c5sc(-c6cc(F)ccc6OC)cc5n(Cc5nnn(CC)n5)c4=O)CC3)c1)=N[C@@H]1CCSC[C@H]21 [Example 35, 3-[1-({3-[(4aR,10bR)-9-ethoxy-8-methoxy-3,4,4a,10b-tetrahydro-1H-thiopyrano[4,3-c]isoquinolin-6-yl]phenyl}carbonyl)piperidin-4-yl]-1-[(2-ethyl-2H-tetrazol-5-yl)methyl]-6-(5-fluoro-2-methoxyphenyl)thieno[3,2-d]pyrimidine-2,4(1H,3H)-dione] | 1 to 10 nM | < 10 nM | 
CCOc1cc2c(cc1OC)C(c1ccc(C(=O)N3CCC(n4c(=O)c5sc(-c6ccccc6)cc5n(Cc5ncn(C)n5)c4=O)CC3)cc1)=N[C@@H]1CCSC[C@H]21 [Example 52, 3-[1-({4-[(4aR,10bR)-9-ethoxy-8-methoxy-3,4,4a,10b-tetrahydro-1H-thiopyrano[4,3-c]isoquinolin-6-yl]phenyl}carbonyl)piperidin-4-yl]-1-[(1-methyl-1H-1,2,4-triazol-3-yl)methyl]-6-phenylthieno[3,2-d]pyrimidine-2,4(1H,3H)-dione] | < 1 nM | > 100 nM | 
CCOc1cc2c(cc1OC)C(c1ccc(C(=O)N3CCC(n4c(=O)c5sc(-c6ccc(F)c(F)c6)cc5n(Cc5nc(CC)no5)c4=O)CC3)cc1)=N[C@@H]1CCSC[C@H]21 [Example 49, 6-(3,4-difluorophenyl)-3-[1-({4-[(4aR,10bR)-9-ethoxy-8-methoxy-3,4,4a,10b-tetrahydro-1H-thiopyrano[4,3-c]isoquinolin-6-yl]phenyl}carbonyl)piperidin-4-yl]-1-[(3-ethyl-1,2,4-oxadiazol-5-yl)methyl]thieno[3,2-d]pyrimidine-2,4(1H,3H)-dione] | 1 to 10 nM | < 10 nM | 
CCOc1cc2c(cc1OC)C(c1ccc(C(=O)N3CCC(n4c(=O)c5sc(-c6ccccc6)cc5n(Cc5nnc(COC)o5)c4=O)CC3)cc1)=N[C@@H]1CCSC[C@H]21 [Example 8, 3-[1-({4-[(4aR,10bR)-9-ethoxy-8-methoxy-3,4,4a,10b-tetrahydro-1H-thiopyrano[4,3-c]isoquinolin-6-yl]phenyl}carbonyl)piperidin-4-yl]-1-{[5-(methoxymethyl)-1,3,4-oxadiazol-2-yl]methyl}-6-phenylthieno[3,2-d]pyrimidine-2,4(1H,3H)-dione] | < 1 nM | 10 to 100 nM | 
